Data: the kinase profiling compilation of Christmann-Franck et al. (2016)

What was measured:
Experiment in all cases: radiometric filter-binding kinase assay
RPS6KA5 KD1 KD2 (human) = RPS6KA5 KD1 KD2 (human) (UniProt O75582)
MAPK8 (human) = MAPK8 (human) (UniProt P45983)
[1] = tested on: RPS6KB1 (human), P23443 [T412E]
MKNK1 (human) = MKNK1 (human) (UniProt Q9BUB5)
HIPK3 (human) = HIPK3 (human) (UniProt Q9H422)
LRRK2 (human) = LRRK2 (human) (UniProt Q5S007)
MAPK1 (human) = MAPK1 (human) (UniProt P28482)
MAP3K11 (human) = MAP3K11 (human) (UniProt Q16584)
PAK7 (human) = PAK7 (human) (UniProt Q9P286)
MST4 (human) = MST4 (human) (UniProt Q9P289)
MAP3K1 (human) = MAP3K1 (human) (UniProt Q13233)
MAPKAPK3 (human) = MAPKAPK3 (human) (UniProt Q16644)
EEF2K (human) = EEF2K (human) (UniProt O00418)
CHEK2 (human) = CHEK2 (human) (UniProt O96017)
STK3 (human) = STK3 (human) (UniProt Q13188)
INSRR (human) = INSRR (human) (UniProt P14616)
EPHA2 (human) = EPHA2 (human) (UniProt P29317)
CDK2 CCNA2 (human) = CDK2 CCNA2 (human) (UniProt P20248+P24941)
MAPK10 (human) = MAPK10 (human) (UniProt P53779)
IRAK4 (human) = IRAK4 (human) (UniProt Q9NWZ3)
PLK1 (human) = PLK1 (human) (UniProt P53350)
PHKG1 (human) = PHKG1 (human) (UniProt Q16816)
CaMK1 (human) = CaMK1 (human) (UniProt Q14012)
DAPK1 (human) = DAPK1 (human) (UniProt P53355)
CSNK2A1 (human) = CSNK2A1 (human) (UniProt P68400)
[2] = tested on: SGK1 (human), O00141 [S422D]
MYLK (human) = MYLK (human) (UniProt Q15746)
EPHB3 (human) = EPHB3 (human) (UniProt P54753)
MAPK15 (human) = MAPK15 (human) (UniProt Q8TD08)
DYRK3 (human) = DYRK3 (human) (UniProt O43781)
MARK3 (human) = MARK3 (human) (UniProt P27448)
[3] = tested on: AKT1 (human), P31749 [S473D]
HIPK1 (human) = HIPK1 (human) (UniProt Q86Z02)

Chain of CHEK2 (human) (O96017 whole entry, looked up): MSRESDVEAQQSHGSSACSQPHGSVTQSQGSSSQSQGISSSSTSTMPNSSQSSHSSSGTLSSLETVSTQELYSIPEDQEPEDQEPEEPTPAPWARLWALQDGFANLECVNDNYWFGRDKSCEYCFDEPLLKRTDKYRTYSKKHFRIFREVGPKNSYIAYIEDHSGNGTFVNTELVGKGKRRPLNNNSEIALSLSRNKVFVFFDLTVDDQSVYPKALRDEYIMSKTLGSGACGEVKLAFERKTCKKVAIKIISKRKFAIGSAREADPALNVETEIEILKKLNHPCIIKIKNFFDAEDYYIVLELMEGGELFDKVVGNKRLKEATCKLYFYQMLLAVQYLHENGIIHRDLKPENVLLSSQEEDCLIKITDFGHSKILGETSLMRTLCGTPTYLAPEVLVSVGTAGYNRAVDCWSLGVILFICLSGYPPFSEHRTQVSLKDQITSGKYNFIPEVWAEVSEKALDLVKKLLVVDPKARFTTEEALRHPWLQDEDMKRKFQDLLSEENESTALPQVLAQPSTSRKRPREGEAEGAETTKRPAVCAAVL
Chain of MYLK (human) (Q15746 whole entry, looked up): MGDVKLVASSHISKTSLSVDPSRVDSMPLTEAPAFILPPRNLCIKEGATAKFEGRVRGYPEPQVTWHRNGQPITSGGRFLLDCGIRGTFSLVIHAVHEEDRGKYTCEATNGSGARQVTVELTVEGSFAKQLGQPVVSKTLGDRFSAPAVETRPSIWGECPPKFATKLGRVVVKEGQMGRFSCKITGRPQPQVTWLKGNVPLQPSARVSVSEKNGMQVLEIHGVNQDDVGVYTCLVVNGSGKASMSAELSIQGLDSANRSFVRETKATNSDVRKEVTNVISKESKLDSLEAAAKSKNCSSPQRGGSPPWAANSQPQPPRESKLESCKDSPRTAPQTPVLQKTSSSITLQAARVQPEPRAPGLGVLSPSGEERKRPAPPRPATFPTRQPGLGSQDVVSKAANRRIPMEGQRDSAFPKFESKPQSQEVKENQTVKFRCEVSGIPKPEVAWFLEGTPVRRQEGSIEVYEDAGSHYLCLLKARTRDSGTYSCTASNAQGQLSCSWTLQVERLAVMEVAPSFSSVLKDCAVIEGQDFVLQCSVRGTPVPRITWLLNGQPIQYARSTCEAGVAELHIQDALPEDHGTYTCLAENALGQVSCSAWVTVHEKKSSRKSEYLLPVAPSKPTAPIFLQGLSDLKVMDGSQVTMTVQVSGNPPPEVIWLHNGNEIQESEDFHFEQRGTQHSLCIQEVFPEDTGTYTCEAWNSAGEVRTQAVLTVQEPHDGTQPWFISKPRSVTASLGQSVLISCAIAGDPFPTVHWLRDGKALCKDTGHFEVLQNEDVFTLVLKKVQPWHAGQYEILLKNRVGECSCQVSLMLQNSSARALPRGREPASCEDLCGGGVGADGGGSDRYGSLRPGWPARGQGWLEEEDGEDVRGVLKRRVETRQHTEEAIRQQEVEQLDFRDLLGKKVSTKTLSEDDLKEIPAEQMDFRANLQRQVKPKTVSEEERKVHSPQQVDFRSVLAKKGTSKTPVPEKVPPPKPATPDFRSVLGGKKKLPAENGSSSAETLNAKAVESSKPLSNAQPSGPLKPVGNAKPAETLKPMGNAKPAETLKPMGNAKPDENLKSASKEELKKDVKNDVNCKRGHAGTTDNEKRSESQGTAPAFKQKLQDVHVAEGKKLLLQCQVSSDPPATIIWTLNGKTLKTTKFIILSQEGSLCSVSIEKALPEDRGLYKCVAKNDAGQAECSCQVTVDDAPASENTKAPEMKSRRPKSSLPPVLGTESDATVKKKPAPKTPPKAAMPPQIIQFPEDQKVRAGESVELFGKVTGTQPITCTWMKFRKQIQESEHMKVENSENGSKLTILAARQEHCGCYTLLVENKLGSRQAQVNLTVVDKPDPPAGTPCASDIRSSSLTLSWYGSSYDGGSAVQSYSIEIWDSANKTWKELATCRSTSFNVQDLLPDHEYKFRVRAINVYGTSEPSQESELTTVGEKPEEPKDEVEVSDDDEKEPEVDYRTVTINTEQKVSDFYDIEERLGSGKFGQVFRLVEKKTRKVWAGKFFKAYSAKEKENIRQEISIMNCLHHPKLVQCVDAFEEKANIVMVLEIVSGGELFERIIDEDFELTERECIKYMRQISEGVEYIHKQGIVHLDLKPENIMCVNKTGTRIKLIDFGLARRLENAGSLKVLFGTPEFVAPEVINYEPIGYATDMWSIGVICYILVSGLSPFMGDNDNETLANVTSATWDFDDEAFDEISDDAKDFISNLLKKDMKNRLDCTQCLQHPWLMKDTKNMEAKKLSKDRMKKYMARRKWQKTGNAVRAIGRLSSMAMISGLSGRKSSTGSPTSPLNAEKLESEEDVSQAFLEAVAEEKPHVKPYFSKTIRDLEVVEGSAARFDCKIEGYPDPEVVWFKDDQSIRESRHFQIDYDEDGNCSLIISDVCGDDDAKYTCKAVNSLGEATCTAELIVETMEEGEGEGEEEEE
Chain of PLK1 (human) (P53350 whole entry, looked up): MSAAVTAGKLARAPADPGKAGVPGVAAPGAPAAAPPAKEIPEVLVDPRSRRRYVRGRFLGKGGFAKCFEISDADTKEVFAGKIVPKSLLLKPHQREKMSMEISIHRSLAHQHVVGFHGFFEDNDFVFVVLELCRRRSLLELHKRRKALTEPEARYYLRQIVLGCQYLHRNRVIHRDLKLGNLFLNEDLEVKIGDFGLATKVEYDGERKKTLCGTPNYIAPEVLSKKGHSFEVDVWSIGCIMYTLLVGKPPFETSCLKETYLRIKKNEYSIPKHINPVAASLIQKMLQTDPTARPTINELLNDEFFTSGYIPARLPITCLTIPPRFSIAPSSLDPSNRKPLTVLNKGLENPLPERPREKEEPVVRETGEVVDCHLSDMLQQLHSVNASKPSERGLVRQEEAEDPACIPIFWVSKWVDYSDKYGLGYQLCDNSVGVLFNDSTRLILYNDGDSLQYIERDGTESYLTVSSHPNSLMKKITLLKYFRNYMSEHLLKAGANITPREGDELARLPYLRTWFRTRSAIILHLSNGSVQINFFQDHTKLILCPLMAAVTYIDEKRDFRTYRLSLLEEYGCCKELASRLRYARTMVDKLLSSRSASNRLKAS
Chain of AKT1 (human), P31749 [S473D] (P31749 whole entry S473D, looked up): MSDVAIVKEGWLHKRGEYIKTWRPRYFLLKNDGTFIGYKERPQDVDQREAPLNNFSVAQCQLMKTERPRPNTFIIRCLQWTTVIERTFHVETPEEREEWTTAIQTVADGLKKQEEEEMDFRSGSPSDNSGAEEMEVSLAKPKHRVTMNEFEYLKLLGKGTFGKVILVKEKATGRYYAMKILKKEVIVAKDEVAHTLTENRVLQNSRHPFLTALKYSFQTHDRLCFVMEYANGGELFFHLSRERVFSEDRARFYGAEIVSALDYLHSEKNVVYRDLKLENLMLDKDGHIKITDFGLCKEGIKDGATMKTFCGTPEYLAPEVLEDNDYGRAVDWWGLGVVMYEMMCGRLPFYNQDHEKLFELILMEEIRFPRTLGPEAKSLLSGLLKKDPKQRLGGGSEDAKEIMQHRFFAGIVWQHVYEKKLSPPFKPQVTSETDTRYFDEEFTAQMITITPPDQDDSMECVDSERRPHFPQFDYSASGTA
Chain of CaMK1 (human) (Q14012 whole entry, looked up): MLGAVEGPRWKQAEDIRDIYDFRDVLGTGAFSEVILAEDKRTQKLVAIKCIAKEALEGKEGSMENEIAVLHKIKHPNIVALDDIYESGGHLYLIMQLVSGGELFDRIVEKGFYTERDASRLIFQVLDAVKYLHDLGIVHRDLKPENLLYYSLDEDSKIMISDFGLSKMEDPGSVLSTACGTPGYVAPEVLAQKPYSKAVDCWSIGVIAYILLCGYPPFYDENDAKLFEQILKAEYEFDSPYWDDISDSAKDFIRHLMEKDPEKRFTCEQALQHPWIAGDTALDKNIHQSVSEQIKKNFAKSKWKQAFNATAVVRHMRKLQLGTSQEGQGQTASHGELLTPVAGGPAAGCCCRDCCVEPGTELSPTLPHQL
Chain of PAK7 (human) (Q9P286 whole entry, looked up): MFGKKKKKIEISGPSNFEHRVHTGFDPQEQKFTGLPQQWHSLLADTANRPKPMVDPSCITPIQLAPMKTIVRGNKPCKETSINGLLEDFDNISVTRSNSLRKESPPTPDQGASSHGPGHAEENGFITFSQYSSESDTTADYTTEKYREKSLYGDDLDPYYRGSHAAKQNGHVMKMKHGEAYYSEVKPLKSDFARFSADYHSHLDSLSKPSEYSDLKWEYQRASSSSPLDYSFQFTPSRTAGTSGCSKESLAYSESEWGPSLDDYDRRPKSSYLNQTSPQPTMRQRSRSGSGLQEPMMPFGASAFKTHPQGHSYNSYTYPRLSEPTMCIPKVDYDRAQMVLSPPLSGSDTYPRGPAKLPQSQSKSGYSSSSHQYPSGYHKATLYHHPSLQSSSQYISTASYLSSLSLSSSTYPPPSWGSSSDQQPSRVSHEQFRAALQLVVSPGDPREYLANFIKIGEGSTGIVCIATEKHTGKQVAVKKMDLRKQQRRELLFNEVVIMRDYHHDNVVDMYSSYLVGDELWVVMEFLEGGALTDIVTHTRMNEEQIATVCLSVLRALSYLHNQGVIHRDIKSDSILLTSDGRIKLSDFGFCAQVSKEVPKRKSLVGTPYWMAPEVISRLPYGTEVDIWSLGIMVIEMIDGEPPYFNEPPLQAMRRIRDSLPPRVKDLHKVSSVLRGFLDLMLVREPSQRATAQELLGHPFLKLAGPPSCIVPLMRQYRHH
Chain of MST4 (human) (Q9P289 whole entry, looked up): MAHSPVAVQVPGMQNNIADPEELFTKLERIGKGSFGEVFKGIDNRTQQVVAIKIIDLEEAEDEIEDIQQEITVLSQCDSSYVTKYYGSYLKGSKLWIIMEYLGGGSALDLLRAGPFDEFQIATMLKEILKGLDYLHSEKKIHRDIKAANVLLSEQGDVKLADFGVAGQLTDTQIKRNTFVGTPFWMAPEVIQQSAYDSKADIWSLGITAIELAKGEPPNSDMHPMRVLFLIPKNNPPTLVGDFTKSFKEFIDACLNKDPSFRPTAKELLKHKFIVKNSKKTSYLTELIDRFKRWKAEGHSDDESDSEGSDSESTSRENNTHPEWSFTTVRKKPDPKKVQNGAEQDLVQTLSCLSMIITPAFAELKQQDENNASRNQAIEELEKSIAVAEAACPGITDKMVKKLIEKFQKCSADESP

COc1cc(C(=O)N2CCC(N3CCN(C)CC3)CC2)ccc1Nc1ncc2c(n1)N(C)c1ccccc1C(=O)N2C
residual activity (RPS6KA5 KD1 KD2 (human); compound 1.0 µM): 79%
residual activity (RPS6KA5 KD1 KD2 (human); compound 10.0 µM): 84%
residual activity (MAPK8 (human); compound 1.0 µM): 85%
residual activity (MAPK8 (human); compound 10.0 µM): 96%
residual activity ([1]; compound 1.0 µM): 86%
residual activity ([1]; compound 10.0 µM): 81%
residual activity (MKNK1 (human); compound 1.0 µM): 86%
residual activity (MKNK1 (human); compound 10.0 µM): 53%
residual activity (HIPK3 (human); compound 1.0 µM): 90%
residual activity (HIPK3 (human); compound 10.0 µM): 102%
IC50 (LRRK2 (human)): 13 nM
residual activity (MAPK1 (human); compound 1.0 µM): 83%
residual activity (MAPK1 (human); compound 10.0 µM): 85%
residual activity (MAP3K11 (human); compound 1.0 µM): 94%
residual activity (MAP3K11 (human); compound 10.0 µM): 84%
residual activity (PAK7 (human); compound 1.0 µM): 84%
residual activity (PAK7 (human); compound 10.0 µM): 89%
residual activity (MST4 (human); compound 1.0 µM): 90%
residual activity (MST4 (human); compound 10.0 µM): 87%
residual activity (MAP3K1 (human); compound 1.0 µM): 87%
residual activity (MAP3K1 (human); compound 10.0 µM): 83%
residual activity (MAPKAPK3 (human); compound 1.0 µM): 85%
residual activity (MAPKAPK3 (human); compound 10.0 µM): 89%
residual activity (EEF2K (human); compound 1.0 µM): 75%
residual activity (EEF2K (human); compound 10.0 µM): 82%
IC50 (CHEK2 (human)): 2000 nM
residual activity (CHEK2 (human); compound 1.0 µM): 38%
residual activity (CHEK2 (human); compound 10.0 µM): 13%
residual activity (STK3 (human); compound 1.0 µM): 100%
residual activity (STK3 (human); compound 10.0 µM): 98%
residual activity (INSRR (human); compound 1.0 µM): 80%
residual activity (INSRR (human); compound 10.0 µM): 91%
residual activity (EPHA2 (human); compound 1.0 µM): 98%
residual activity (EPHA2 (human); compound 10.0 µM): 91%
residual activity (CDK2 CCNA2 (human); compound 1.0 µM): 84%
residual activity (CDK2 CCNA2 (human); compound 10.0 µM): 79%
residual activity (MAPK10 (human); compound 1.0 µM): 92%
residual activity (MAPK10 (human); compound 10.0 µM): 109%
residual activity (IRAK4 (human); compound 1.0 µM): 93%
residual activity (IRAK4 (human); compound 10.0 µM): 94%
IC50 (PLK1 (human)): > 100000 nM
residual activity (PLK1 (human); compound 1.0 µM): 73%
residual activity (PLK1 (human); compound 10.0 µM): 35%
residual activity (PHKG1 (human); compound 1.0 µM): 98%
residual activity (PHKG1 (human); compound 10.0 µM): 59%
residual activity (CaMK1 (human); compound 1.0 µM): 75%
residual activity (CaMK1 (human); compound 10.0 µM): 43%
residual activity (DAPK1 (human); compound 1.0 µM): 85%
residual activity (DAPK1 (human); compound 10.0 µM): 77%
residual activity (CSNK2A1 (human); compound 1.0 µM): 71%
residual activity (CSNK2A1 (human); compound 10.0 µM): 80%
residual activity ([2]; compound 1.0 µM): 75%
residual activity ([2]; compound 10.0 µM): 89%
IC50 (MYLK (human)): 12200 nM
residual activity (MYLK (human); compound 1.0 µM): 76%
residual activity (MYLK (human); compound 10.0 µM): 25%
residual activity (EPHB3 (human); compound 1.0 µM): 71%
residual activity (EPHB3 (human); compound 10.0 µM): 71%
residual activity (MAPK15 (human); compound 1.0 µM): 86%
residual activity (MAPK15 (human); compound 10.0 µM): 104%
residual activity (DYRK3 (human); compound 1.0 µM): 95%
residual activity (DYRK3 (human); compound 10.0 µM): 96%
residual activity (MARK3 (human); compound 1.0 µM): 100%
residual activity (MARK3 (human); compound 10.0 µM): 105%
residual activity ([3]; compound 1.0 µM): 71%
residual activity ([3]; compound 10.0 µM): 81%
residual activity (HIPK1 (human); compound 1.0 µM): 94%
residual activity (HIPK1 (human); compound 10.0 µM): 104%
